Experiment [1] deals with phosphorylated tau (pTau). The experiment can be described thus: Phosphorylated tau level in brain, capillary-phoresis. The experiment is classed as in vivo, mouse. As to conditions: treated 3xTg mice; controls = 100%. An excerpt: (§1) Capillary-phoresis immunoassay via ProteinSimple®: Quantification of all protein targets was achieved using Simple Western analysis in a Jess™ apparatus per the manufacturer's protocol (ProteinSimple, Bio-techne, Minneapolis, MN). Protein was extracted from dissected tissue in an extraction buffer consisting of T-PER® Tissue Protein Extraction Reagent (Cat. No. 78510, Thermo Fischer Scientific, Waltham, MA) and Halt™ Protease Inhibitor Cocktail (Cat. No. 87785, Thermo Fischer Scientific, Waltham, MA). Following homogenization and centrifugation (10,000×g, 5 min, 4° C.), protein concentration was determined in tissue protein supernatant samples using DC Protein Assay (Cat. No. 5000112, Bio-Rad Laboratories, Hercules, California) according to manufacturer instructions. […] Antibody diluent (ProteinSimple, Bio-techne, Minneapolis, MN) was used for all antibody dilutions as follows: PRMT4 (1:50, RRID: AB_2068436), PRMT6 (1:100, Cell Signaling Technology cat. 14641), eNOS (1:200, RRID: AB_10850618), nNOS (1:100, RRID: AB_2152488), iNOS (1:100, RRID: AB_10000625), DDAH2 (1:50, RRID: AB_2640442) Antibodies were detected using HRP-conjugated secondary anti-rabbit, and -mouse. Relative protein levels were calculated by measuring the area under the peak of a chemiluminescent chromatogram and normalized to total capillary chemiluminescence for a given sample. […]

For experiment [2], the system named is methylation of H3 (1-25) and MED12. The settings on record: in cell; cited from earlier work.
A further experiment relates to VCAM-1. The experiment can be described thus: VCAM-1 level, protein chip assay. The experiment is classed as in vivo, mouse. The settings on record: aged 3xTg-AD female mice; cortex and hippocampus; 30 mg/kg, 7 days, IP. Here is the method:
FIGS. 19A-19F are six graphs showing PRMT4 inhibitor (TP-064) reduced ICAM-1, VCAM-1 and enhanced E-Cadherin protein levels in aged female 3xTg-AD mice. In FIGS. 19A-19D, aged 3xTg-AD female mice v. […] Adhesion molecules were assessed via protein chip assay in the cortex and hippocampus. * p<0.05 evaluated by one-way ANOVA with Tukey's post-hoc analyses.

Another experiment deals with eNOS. The experiment in a line: eNOS protein level in brain, capillary-phoresis. As to conditions: treated 3xTg-AD mice; control = 100%. In kind it is in vivo, mouse.
Description: as §1

Results on one compound are retold here after US20240238268A1, “TREATMENTS AND METHODS FOR TREATING ALZHEIMER'S DISEASE” (Board of Supervisors of Louisiana State University and …, priority 2021, published 2024).

`CNCCN1CCC(c2cc(CN(C)C(=O)c3cccc(Oc4ccccc4)c3)ccn2)CC1` [TP-064, N-Methyl-N-((2-(1-(2-(methylamino)ethyl)piperidin-4-yl)pyridin-4-yl)methyl)-3-phenoxybenzamide]: in experiment [1], the “pTau level in cortex” value is 234%±8.33 and the “pTau level in hippocampus” value is 307%±31.4. Moreover, the “methylation of H3 (1-25) and MED12” value in experiment [2] is “inhibits”. In the experiment with VCAM-1, the VCAM-1 level entry is “decreased”. For the same compound, in the experiment with eNOS, the “eNOS level in cortical lysates” value is reported as 94.0%±25.6 and the “eNOS level in hippocampal lysates” value is listed as 69.5%±2.71.
